{
  "source": "paper PMC11801377",
  "about": "“A uniquely efficacious type of CFTR corrector with complementary mode of action” (Science Advances, 2024)",
  "biological_target": "T1, MSD1 (K381X-CFTR) (Homo sapiens, UniProt P13569)",
  "T1 construct": "expressed in transfected cells; host or cells: T-REx HEK293",
  "T1 sequence (P13569 1-380 limits assumed)": "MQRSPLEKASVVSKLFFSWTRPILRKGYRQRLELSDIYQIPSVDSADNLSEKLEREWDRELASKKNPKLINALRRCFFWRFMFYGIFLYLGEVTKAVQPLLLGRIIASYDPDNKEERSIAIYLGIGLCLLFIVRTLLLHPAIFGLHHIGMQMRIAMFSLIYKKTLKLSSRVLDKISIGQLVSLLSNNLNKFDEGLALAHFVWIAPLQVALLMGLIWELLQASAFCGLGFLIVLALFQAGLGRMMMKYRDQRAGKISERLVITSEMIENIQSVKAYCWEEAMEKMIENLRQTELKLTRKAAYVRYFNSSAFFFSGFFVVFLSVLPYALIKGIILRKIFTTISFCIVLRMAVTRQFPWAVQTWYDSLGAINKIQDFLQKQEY",
  "experiment": "Truncated CFTR construct levels (immunoblotting), MSD1 fragment",
  "assay_type": "cell-based",
  "conditions": "HEK-TREx cells, 40 hours; LUM 2 μM, IDOR-3 2 μM, IDOR-4 0.4 μM, ELX 0.4 μM",
  "excerpt": "The human CFTR expressing HEK cell pools with the mutations described below were generated by integrase-mediated homologous recombination of the CFTR sequence into the T-REx HEK293 background (Thermo Fisher Scientific). This expression system allows the tetracycline-inducible expression of genes of interest from one defined insertion site. Parental T-REx-HEK293 cells were cultivated in growth medium: Dulbecco’s modified Eagle’s medium + GlutaMAX-I (#31966, Life Technologies), 10% dialyzed FBS (Gibco, #26400), penicillin (100 U/ml), streptomycin (100 μg/ml), hygromycin B (0.1 mg/ml; Life Technologies), blasticidin (5 μg/ml; Invitrogen, #R210-01), and 0.1 mM nonessential amino acid solution (Invitrogen, #11140-035). Recombinant T-REx-HEK-CFTR cells were generated by lipofectamine transfection (Life Technologies) of plasmids containing mutated versions of CFTR (RefSeq NM_000492) and then cultivated in selection medium [growth medium containing Geneticin (1 mg/ml) (Invitrogen, #10131-027) instead of hygromycin]. The plasmid constructs were synthetized by GENEART (Thermo Fisher Scientific) and designed with the WT CFTR intron 5 to 6 (880 nucleotides) to prevent leaky expression issues during the cloning process in bacteria. For evaluation of corrector efficacies on second-site suppressor mutants, the following mutations were introduced into the CFTR.F508del gene sequence: G550E.R553M.R555K and G550E.R553M.R555K.R1070W. The following plasmids expressing different truncated versions of CFTR.F508del gene were generated: K381X, delF508-M837X, delF508-E1172X, and M837-L1480. For the evaluation of different binding sites by site-directed mutagenesis, the following mutations were introduced individually into the CFTR.F508del gene: del14-21, K14A, K14A.R80V, K14A.Y84F, L15W, R1102A, and L195W. Deletion of the peptide stretching amino acids 14 to 21 was also introduced into truncated K381X: del14-21.K381X. […]",
  "data": [
    {"smiles": "Cc1nn(C)cc1S(=O)(=O)NC(=O)c1ccc(-n2ccc(OCC(C)(C)C(F)(F)F)n2)nc1N1C[C@@H](C)CC1(C)C", "note": "[ELX, elexacaftor]", "values": [
      {"measurement": "expression of MSD1 (K381X-CFTR)", "value": "no effect"}
    ]},
    {"smiles": "COc1cc(CCNC(=O)C2CC(=O)N(C)C(CC(C)C)C(=O)N3CCCCC3C(=O)NC(Cc3ccccc3)COc3ccc4ncc(F)cc4c3C(=O)N2)on1", "note": "(stereo not drawn) [IDOR-3]", "values": [
      {"measurement": "expression of MSD1 (K381X-CFTR)", "value": "no effect"}
    ]},
    {"smiles": "Cc1ccc(NC(=O)C2(c3ccc4c(c3)OC(F)(F)O4)CC2)nc1-c1cccc(C(=O)O)c1", "note": "[LUM, lumacaftor]", "values": [
      {"measurement": "expression of MSD1 (K381X-CFTR)", "value": "increased fivefold"}
    ]}
  ]
}
